Among the data in US20240246977A1, “DEGRADATION OF BRUTON'S TYROSINE KINASE (BTK) BY CONJUGATION OF BTK INHIBITORS WITH E3 LIGASE LIGAND AND METHOD OF USE” (BeiGene Switzerland GmbH, priority 2021, published 2024) are IC50 and DC50 values, retold here.

One assay deals with HEK-293 cells. Nature of the assay: HEK-293 cytotoxicity detection (CellTiter-Glo). The format is cell-based. To be noted: Homo sapiens, 72 h, 72 h incubation, CellTiter-Glo luminescence, read-out: HEK293. In a few lines:
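HEK-293 cells exposed 72 h to 8 compounds doses (4-fold dilutions, top stock 5 mM at 500×) in 0.2% DMSO. Viability by CellTiter-Glo luminescence; inhibition normalised to DMSO high control and low control, IC50 from four-parameter curve fit.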
(In ATP-based viability assays light output follows the ATP content of the culture.)

Another assay deals with BTK (Homo sapiens, UniProt Q06187). The assay is described as follows: BTK cell degradation in TMD-8 cells, HTRF assay. The format is cell-based. Also noted: endogenous in cells; host or cells: TMD-8 cells. To be noted: 6 h treatment, IC50 (DC50) of BTK degradation. In a few lines:
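TMD-8 cells treated 6 h with 8-dose series (6-fold dilutions, 0.2% DMSO final), then lysed and BTK quantified by HTRF (337/665/620 nm) after overnight antibody incubation at room temperature. Degradation normalized to DMSO high and low controls; DC50 and Dmax from four-parameter fit.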

Sequence of BTK (Q06187 whole entry): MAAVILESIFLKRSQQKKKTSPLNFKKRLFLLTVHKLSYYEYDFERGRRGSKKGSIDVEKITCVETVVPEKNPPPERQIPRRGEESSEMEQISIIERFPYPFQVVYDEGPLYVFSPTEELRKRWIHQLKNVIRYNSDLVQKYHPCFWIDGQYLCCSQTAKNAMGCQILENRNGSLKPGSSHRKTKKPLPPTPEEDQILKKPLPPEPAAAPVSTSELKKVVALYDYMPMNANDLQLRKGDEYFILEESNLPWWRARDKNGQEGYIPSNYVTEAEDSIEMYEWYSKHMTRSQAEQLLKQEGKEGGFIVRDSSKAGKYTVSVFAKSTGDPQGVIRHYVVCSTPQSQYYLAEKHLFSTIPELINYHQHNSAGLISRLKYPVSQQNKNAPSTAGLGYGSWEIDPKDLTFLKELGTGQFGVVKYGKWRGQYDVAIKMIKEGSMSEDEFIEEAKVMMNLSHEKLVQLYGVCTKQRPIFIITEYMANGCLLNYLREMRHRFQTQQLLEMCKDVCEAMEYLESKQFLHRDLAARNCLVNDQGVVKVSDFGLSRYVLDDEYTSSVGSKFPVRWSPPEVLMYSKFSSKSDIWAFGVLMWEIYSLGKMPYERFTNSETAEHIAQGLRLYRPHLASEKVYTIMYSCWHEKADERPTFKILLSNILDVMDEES

`NC(=O)c1c(-c2ccc(Oc3ccccc3)cc2)nn2c1Nc1cc(C3CCN(CCc4ccc(N5CCC(=O)NC5=O)cc4)CC3)ccc1CC2` [Example A33, 6-(1-(4-(2,4-dioxotetrahydropyrimidin-1(2H)-yl)phenethyl)piperidin-4-yl)-2-(4-phenoxyphenyl)-9,10-dihydro-4H-benzo[d]pyrazolo[1,5-a][1,3]diazepine-3-carboxamide]: the IC50 in the assay on HEK-293 cells is 0.314 µM. The same compound showed a DC50 on BTK of over 2000 nM.

Regarding `Cc1cccc(NC(=O)c2ccc(-c3nn4c(c3C(N)=O)Nc3ccc(N5CCN(CC6CCN(c7cc8c(cc7F)C(=O)N(C7CCC(=O)NC7=O)C8=O)CC6)CC5)cc3CC4)c(F)c2C)n1` (centres unmarked) [Example B55, 7-(4-((1-(2-(2,6-dioxopiperidin-3-yl)-6-fluoro-1,3-dioxoisoindolin-5-yl)piperidin-4-yl)methyl)piperazin-1-yl)-2-(2-fluoro-3-methyl-4-((6-methylpyridin-2-yl)carbamoyl)phenyl)-9,10-dihydro-4H-benzo[d]pyrazolo[1,5-a][1,3]diazepine-3-carboxamide], the IC50 in the assay on HEK-293 cells is over 10 µM. On BTK, the DC50 came to 2.42 nM.

As for `Cc1cccc(NC(=O)c2ccc(-c3nn4c(c3C(N)=O)Nc3ccc(N5CCN(Cc6ccc7c(c6)C(C)(C)C(=O)N7C6CCC(=O)NC6=O)CC5)cc3CC4)c(F)c2C)n1` (centres unmarked) [Example B60, 7-(4-((1-(2,6-dioxopiperidin-3-yl)-3,3-dimethyl-2-oxoindolin-5-yl)methyl)piperazin-1-yl)-2-(2-fluoro-3-methyl-4-((6-methylpyridin-2-yl)carbamoyl)phenyl)-9,10-dihydro-4H-benzo[d]pyrazolo[1,5-a][1,3]diazepine-3-carboxamide], the IC50 with HEK-293 cells is over 10 µM. In addition, half-maximal degradation on BTK (DC50) was put at 4.97 nM.

Take `NC(=O)c1c(-c2ccc(Oc3ccccc3)cc2)nn2c1Nc1cc(C(=O)N3CCC(CN4CCN(c5cc6c(cc5F)C(=O)N(C5CCC(=O)NC5=O)C6=O)CC4)CC3)ccc1CC2` (centres unmarked) [Example A20, 6-(4-((4-(2-(2,6-dioxopiperidin-3-yl)-6-fluoro-1,3-dioxoisoindolin-5-yl)piperazin-1-yl)methyl)piperidine-1-carbonyl)-2-(4-phenoxyphenyl)-9,10-dihydro-4H-benzo[d]pyrazolo[1,5-a][1,3]diazepine-3-carboxamide]: the IC50 in the assay on HEK-293 cells is over 10 µM. At BTK, this compound had a DC50 of 13.4 nM.

For the compound `COc1ccc2ccccc2c1C(=O)NCc1ccc(-c2nn3c(c2C(N)=O)Nc2ccc(N4CCN(CC5CCN(c6ccc(N7CCC(=O)NC7=O)cc6)CC5)CC4)cc2CC3)cc1` [Example C4, 7-(4-((1-(4-(2,4-dioxotetrahydropyrimidin-1(2H)-yl)phenyl)piperidin-4-yl)methyl)piperazin-1-yl)-2-(4-((2-methoxy-1-naphthamido)methyl)phenyl)-9,10-dihydro-4H-benzo[d]pyrazolo[1,5-a][1,3]diazepine-3-carboxamide], the IC50 in the assay with HEK-293 cells is over 10 µM. The compound also came in with a DC50 at BTK of 0.282 nM.

Turning to `Cc1cccc(NC(=O)c2ccc(-c3nn4c(c3C(N)=O)Nc3ccc(N5CCN(C6CC(c7ccc([C@H]8CCC(=O)NC8=O)cc7)C6)CC5)cc3CC4)c(F)c2C)n1` (stereo partly drawn) [Example B67, (R)-7-(4-(3-(4-(2,6-dioxopiperidin-3-yl)phenyl)cyclobutyl)piperazin-1-yl)-2-(2-fluoro-3-methyl-4-((6-methylpyridin-2-yl)carbamoyl)phenyl)-9,10-dihydro-4H-benzo[d]pyrazolo[1,5-a][1,3]diazepine-3-carboxamide], the IC50 in the assay with HEK-293 cells came to 0.0968 µM. Besides, on BTK, the DC50 amounted to 0.622 nM.

With `Cc1cccc(NC(=O)c2ccc(-c3nn4c(c3C(N)=O)Nc3ccc(N5CCN(CC6CCN(c7ccc(N8CCC(=O)NC8=O)c(C)c7)CC6)CC5)cc3CC4)c(F)c2C)n1` [Example B54, 7-(4-((1-(4-(2,4-dioxotetrahydropyrimidin-1(2H)-yl)-3-methylphenyl)piperidin-4-yl)methyl)piperazin-1-yl)-2-(2-fluoro-3-methyl-4-((6-methylpyridin-2-yl)carbamoyl)phenyl)-9,10-dihydro-4H-benzo[d]pyrazolo[1,5-a][1,3]diazepine-3-carboxamide], in the assay on HEK-293 cells, the IC50 was over 10 µM. Further, the DC50 on BTK turned out to be 3.75 nM.

Regarding `Cc1c(C(=O)Nc2cn(C)cn2)ccc(-c2nn3c(c2C(N)=O)Nc2ccc(N4CCN(C(=O)C5CCN(c6ccc(N7CCC(=O)NC7=O)cc6)CC5)CC4)cc2CC3)c1F` [Example B91, 7-(4-(1-(4-(2,4-dioxotetrahydropyrimidin-1(2H)-yl)phenyl)piperidine-4-carbonyl)piperazin-1-yl)-2-(2-fluoro-3-methyl-4-((1-methyl-1H-imidazol-4-yl)carbamoyl)phenyl)-9,10-dihydro-4H-benzo[d]pyrazolo[1,5-a][1,3]diazepine-3-arboxamide], the IC50 in the assay on HEK-293 cells is over 10 µM. On BTK, this compound displayed a DC50 of 1.36 nM.

Turning to `COc1ccc(C(F)(F)F)cc1C(=O)NCc1ccc(-c2nn3c(c2C(N)=O)Nc2ccc(N4CCN(CC5CCN(c6ccc(N7CCC(=O)NC7=O)cc6)CC5)CC4)cc2CC3)c(F)c1` [Example C24, 7-(4-((1-(4-(2,4-dioxotetrahydropyrimidin-1(2H)-yl)phenyl)piperidin-4-yl)methyl)piperazin-1-yl)-2-(2-fluoro-4-((2-methoxy-5-(trifluoromethyl)benzamido)methyl)phenyl)-9,10-dihydro-4H-benzo[d]pyrazolo[1,5-a][1,3]diazepine-3-carboxamide], the IC50 in the assay with HEK-293 cells is over 10 µM. The half-maximal degradation concentration (DC50) on BTK was 2.11 nM.

With `Cc1c(C(=O)Nc2cscn2)ccc(-c2nn3c(c2C(N)=O)Nc2ccc(N4CCN(CC5CCN(c6cccc(CN7CCC(=O)NC7=O)c6)CC5)CC4)cc2CC3)c1F` [Example B99, 7-(4-((1-(3-((2,4-dioxotetrahydropyrimidin-1(2H)-yl)methyl)phenyl)piperidin-4-yl)methyl)piperazin-1-yl)-2-(2-fluoro-3-methyl-4-(thiazol-4-ylcarbamoyl)phenyl)-9,10-dihydro-4H-benzo[d]pyrazolo[1,5-a][1,3]diazepine-3-carboxamide], the IC50 in the assay on HEK-293 cells was over 10 µM. The DC50 on BTK was 2.72 nM.

Turning to `NC(=O)c1c(-c2ccc(Oc3ccccc3)cc2)nn2c1Nc1ccc(C(=O)NC3CCN(CC4CCN(c5cc6c(cc5F)C(=O)N(C5CCC(=O)NC5=O)C6=O)CC4)CC3)cc1CC2` (centres unmarked) [Example A10, N^7-(1-((1-(2-(2,6-dioxopiperidin-3-yl)-6-fluoro-1,3-dioxoisoindolin-5-yl)piperidin-4-yl)methyl)piperidin-4-yl)-2-(4-phenoxyphenyl)-9,10-dihydro-4H-benzo[d]pyrazolo[1,5-a][1,3]diazepine-3,7-dicarboxamide], in the assay with HEK-293 cells, the IC50 came out at 0.121 µM. At BTK, this compound registered a DC50 of 1.75 nM.

On to `Cc1cc(-c2nn3c(c2C(N)=O)Nc2ccc(N4CCN(CC5CCN(c6ccc(N7CCC(=O)NC7=O)cc6)CC5)CC4)cc2CC3)ccc1C(=O)Nc1cc(C(F)(F)F)ccn1` [Example B5, 7-(4-((1-(4-(2,4-dioxotetrahydropyrimidin-1(2H)-yl)phenyl)piperidin-4-yl)methyl)piperazin-1-yl)-2-(3-methyl-4-((4-(trifluoromethyl)pyridin-2-yl)carbamoyl)phenyl)-9,10-dihydro-4H-benzo[d]pyrazolo[1,5-a][1,3]diazepine-3-carboxamide], for which, in the assay with HEK-293 cells, the IC50 was over 10 µM. This compound also registered a DC50 at BTK of 1.46 nM.

`COc1ccccc1C(=O)NCc1ccc(-c2nn3c(c2C(N)=O)Nc2ccc(N4CCN(CC5CCN(c6ccc(N7CCC(=O)NC7=O)cc6)CC5)CC4)cc2CC3)c(OC)c1` [Example C44, 7-(4-((1-(4-(2,4-dioxotetrahydropyrimidin-1(2H)-yl)phenyl)piperidin-4-yl)methyl)piperazin-1-yl)-2-(2-methoxy-4-((2-methoxybenzamido)methyl)phenyl)-9,10-dihydro-4H-benzo[d]pyrazolo[1,5-a][1,3]diazepine-3-carboxamide]: the IC50 in the assay on HEK-293 cells was 0.642 µM. This compound showed a DC50 on BTK of 3.8 nM.

With `Cc1cccc(NC(=O)c2ccc(-c3nn4c(c3C(N)=O)Nc3ccc(N5CCN(CC6CCN(c7ccc(N8CCC(=O)NC8=O)cc7)CC6)CC5)cc3CC4)nc2C)n1` [Example B38, 7-(4-((1-(4-(2,4-dioxotetrahydropyrimidin-1(2H)-yl)phenyl)piperidin-4-yl)methyl)piperazin-1-yl)-2-(6-methyl-5-((6-methylpyridin-2-yl)carbamoyl)pyridin-2-yl)-9,10-dihydro-4H-benzo[d]pyrazolo[1,5-a][1,3]diazepine-3-carboxamide], in the assay on HEK-293 cells, the IC50 was over 10 µM. For the same compound, half-maximal degradation on BTK (DC50) was put at 4.89 nM.

Regarding `Cc1c(C(=O)Nc2cnc3ccccc3n2)ccc(-c2nn3c(c2C(N)=O)Nc2ccc(N4CCN(CC5CCN(c6ccc(N7CCC(=O)NC7=O)cc6)CC5)CC4)cc2CC3)c1F` [Example B47, 7-(4-((1-(4-(2,4-dioxotetrahydropyrimidin-1(2H)-yl)phenyl)piperidin-4-yl)methyl)piperazin-1-yl)-2-(2-fluoro-3-methyl-4-(quinoxalin-2-ylcarbamoyl)phenyl)-9,10-dihydro-4H-benzo[d]pyrazolo[1,5-a][1,3]diazepine-3-carboxamide], the IC50 in the assay with HEK-293 cells is over 10 µM. On BTK, it took 1.9 nM to reach half-maximal degradation (DC50).

As for `COc1ccncc1C(=O)N[C@H](C)c1ccc(-c2nn3c(c2C(N)=O)Nc2ccc(N4CCN(CC5CCN(c6ccc(N7CCC(=O)NC7=O)cc6)CC5)CC4)cc2CC3)cc1` [Example C18, (R)-7-(4-((1-(4-(2,4-dioxotetrahydropyrimidin-1(2H)-yl)phenyl)piperidin-4-yl)methyl)piperazin-1-yl)-2-(4-(1-(4-methoxynicotinamido)ethyl)phenyl)-9,10-dihydro-4H-benzo[d]pyrazolo[1,5-a][1,3]diazepine-3-carboxamide], the IC50 in the assay on HEK-293 cells is over 10 µM. In addition, the DC50 at BTK was found to be 12.5 nM.

The term DC50 denotes the midpoint of the concentration-degradation curve. Read a low DC50 as a more potent degrader.
